The values below come from patent publication US20220184083A1, “USE OF AN AGENT CAPABLE OF INHIBITING THE ACTIVATION OF MAIT CELLS FOR THE TREATMENT OF OBESITY AND OBESITY-RELATED DISORDERS” (INSERM (INSTITUT NATIONAL DE LA SANTÉ ET DE LA RECHERCH …, priority 2019, published 2022).

Type in all cases: in vivo
For experiment [1], the system named is Vαl9^+/− mice fed HFD. As to the kind of experiment: ITT, OGTT and weight gain in Vαl9+/− mice on high fat diet treated with Ac-6-FP. From the text:
FIG. 2: Ac-6-FP treatment during HFD improved metabolic parameters. Vαl9^+/− mice fed during 6 weeks of HFD were then giving water containing 50 nm/ml of Ac-6-FP (Acetyl-6-formylpterin) (n=8) or PBS (n=7) for 8 weeks and IP injected, twice a week, 50 nm of Ac-6-FP or PBS. (A) ITT and OGTT in Vαl9^+/− Ac-6-FP-treated mice and Vαl9^+/− control mice. (B) Percentage of weight gain of Ac-6-FP-treated Vαl9^+/− mice and Vαl9^+/− control mice.

In experiment [2] the test system is visceral adipose tissue macrophages. As to the kind of experiment: Frequency of M1 and M2 macrophages in visceral adipose tissue. Particulars: Vαl9+/− mice, treated vs non-treated. An excerpt:
FIG. 4: Frequency of MI-macrophages (CD206−CD11c+) and M2-macrophages (CD206+CD11c−) among total macrophages and M1/M2 ratio in visceral adipose tissue from Vαl9+/− Ac-6-FP treated mice and their controls.

The subject of experiment [3] is MR1−/− mice. Put plainly: ITT and OGTT at 12 weeks of HFD in MR1−/− mice treated with Ac-6-FP. As to conditions: Ac-6-FP treated vs controls. An excerpt:
FIG. 5: Insulin Tolerance Test (ITT) and Oral Glucose Tolerance Test (OGTT) at 12 weeks of High Fat Diet (HFD) in MR1−/− Ac-6-FP treated mice and their respective controls.

Experiment [4] relates to MAIT cells. As to the kind of experiment: Intracellular staining of MAIT cells for IL-17A in ileum and visceral adipose tissue. As to conditions: Vα19+/− mice, Ac-6-FP treated vs control (PBS). An excerpt:
FIG. 3: Intra cellular staining of MAIT cells for IL-17A. Frequency of IL-17A positive MAIT cells in ileum and visceral adipose tissue from Vαl9+/− control (PBS) and Vαl9+/− Ac-6-FP treated mice.

For the compound `CC(=O)Nc1nc2ncc(C=O)nc2c(=O)[nH]1` [Ac-6-FP, acetyl-6-formylpterin], in experiment [1] (Ac-6-FP treatment during high fat diet (HFD), obese mice), the insulin sensitivity entry is “improved”. Further, the “metabolic parameters (ITT, OGTT, percentage of weight gain)” value in experiment [1] (Vαl9+/− mice, 6 weeks HFD, then water containing 50 nm/ml Ac-6-FP for 8 weeks plus IP 50 nm twice a week, vs PBS) is given as “improved”. In experiment [2], the “frequency of M1-like macrophages (pro-inflammatory, CD206−CD11c+)” value was “decreased frequency” and the “frequency of M2-like macrophages (anti-inflammatory, CD206+CD11c−)” value is reported as “increased frequency”. Besides, in experiment [3], the “glucose tolerance (OGTT)” value is on record as “did not have any effect” and the “insulin sensitivity (ITT)” value was “did not have any effect”. The “production of IL-17A by MAIT cells” value in experiment [4] (ileum) was “decreased production”. For the same compound, the “production of IL-17A by MAIT cells” value in experiment [4] (visceral adipose tissue) is “decreased production”.
